Results reported in ChEMBL document CHEMBL4219062, “Design, synthesis and evaluation of γ-turn mimetics as LSD1-selective inhibitors” (Bioorg Med Chem, 2018).
Blank lines part the entries; values can stand above or below the molecule they belong to. Calls of active or inactive are those of the source. The rule behind the calls is not given here.

What was measured:
A549 [1] = test: cells; conditions: Homo sapiens, A549, 72 h
Description: Growth inhibition of human A549 cells after 72 hrs by Alamarblue assay

[2] = biological target: T1, Amine oxidase [flavin-containing] B (Homo sapiens, UniProt P27338); test: biochemical
T1 sequence (P27338 whole entry): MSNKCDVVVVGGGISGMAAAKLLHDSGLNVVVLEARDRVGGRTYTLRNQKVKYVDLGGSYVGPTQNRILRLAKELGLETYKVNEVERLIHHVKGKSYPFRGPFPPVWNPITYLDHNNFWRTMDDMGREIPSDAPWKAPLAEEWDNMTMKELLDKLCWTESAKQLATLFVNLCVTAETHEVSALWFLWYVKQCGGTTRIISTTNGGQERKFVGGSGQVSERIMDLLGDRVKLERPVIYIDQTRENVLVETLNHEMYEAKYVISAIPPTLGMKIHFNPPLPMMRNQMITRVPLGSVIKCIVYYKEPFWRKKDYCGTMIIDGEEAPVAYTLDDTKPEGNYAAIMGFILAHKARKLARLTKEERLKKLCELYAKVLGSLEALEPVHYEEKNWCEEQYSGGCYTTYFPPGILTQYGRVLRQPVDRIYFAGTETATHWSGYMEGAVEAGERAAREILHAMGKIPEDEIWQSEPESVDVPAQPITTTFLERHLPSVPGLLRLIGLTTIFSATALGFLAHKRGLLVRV
Description: Inhibition of recombinant human MAO-B expressed in baculovirus infected BTI insect cells using (4S)-4,5-dihydro-2-(6-hydroxybenzothiazolyl)-4-thiazolecarboxylic acid as substrate measured after 60 mins by chemiluminescence assay

A549 [3] = test: cells; conditions: Homo sapiens, A549, 72 h, read-out: GI
[4] = biological target: T2, Amine oxidase [flavin-containing] A (Homo sapiens, UniProt P21397); test: biochemical
T2 sequence (P21397 whole entry): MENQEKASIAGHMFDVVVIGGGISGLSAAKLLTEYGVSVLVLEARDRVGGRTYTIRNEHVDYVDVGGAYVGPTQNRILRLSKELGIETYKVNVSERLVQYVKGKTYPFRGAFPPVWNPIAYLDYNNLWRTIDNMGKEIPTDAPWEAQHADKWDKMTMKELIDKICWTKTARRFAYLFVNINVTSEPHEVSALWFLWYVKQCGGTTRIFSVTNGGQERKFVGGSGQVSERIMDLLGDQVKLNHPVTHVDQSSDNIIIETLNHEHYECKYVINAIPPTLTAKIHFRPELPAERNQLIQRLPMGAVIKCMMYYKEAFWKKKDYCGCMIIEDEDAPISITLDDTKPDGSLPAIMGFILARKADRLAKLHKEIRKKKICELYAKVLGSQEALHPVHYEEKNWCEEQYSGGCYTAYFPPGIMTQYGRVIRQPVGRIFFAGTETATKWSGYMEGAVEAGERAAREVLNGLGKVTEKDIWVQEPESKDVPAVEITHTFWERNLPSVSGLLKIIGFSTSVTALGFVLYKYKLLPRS
Description: Inhibition of recombinant human MAO-A expressed in baculovirus infected BTI insect cells using (4S)-4,5-dihydro-2-(6-hydroxybenzothiazolyl)-4-thiazolecarboxylic acid as substrate measured after 60 mins by chemiluminescence assay

A549 [5] = conditions: Homo sapiens, 10 uM
A549 [6] = test: Cell cycle arrest in human A549 cells assessed as increase in G1 population at 2 uM measured after 24 hrs by propidium iodide staining based flow cytometric analysis; type: functional
A549 [7] = test: Cell cycle arrest in human A549 cells assessed as accumulation at sub-G1 population at 6 to 8 uM by propidium iodide staining based flow cytometric analysis; type: functional; conditions: TDE = time-dependent effect
A549 [8] = test: Cell cycle arrest in human A549 cells assessed as decrease in S population at 2 uM measured after 24 hrs by propidium iodide staining based flow cytometric analysis; type: functional

- GI50 (A549 [1]): 8.6 µM
- IC50 [2]: > 100 µM
- IC50 [4]: > 100 µM
Structure (SMILES): O=C(N[C@@H](CCCCN[C@@H]1C[C@H]1c1ccccc1)C(=O)NCc1cccc(Cl)c1)c1ccc(-c2ccccc2)cc1
- inhibition of growth at 10 µM (A549 [3]): 100%

Structure (SMILES): O=C(N[C@@H](CCCCN[C@@H]1C[C@H]1c1ccccc1)C(=O)NCc1ccccc1)c1ccccc1
- growth inhibition (GI) (A549 [5]): inactive

Structure (SMILES): CNS(=O)(=O)c1cccc(-c2ccc([C@@H]3C[C@H]3NCCCCC3C(=O)N(Cc4ccccc4)CCN(c4ccccc4)C3=O)cc2)c1 (relative stereo)
- inhibition of growth at 10 µM (A549 [3]): 16%

- GI50 (A549 [1]): 5.8 µM
- IC50 [2]: > 100 µM
- IC50 [4]: > 100 µM
Structure (SMILES): O=C1C(CCCCN[C@@H]2C[C@H]2c2ccccc2)C(=O)N(c2ccc(-c3ccccc3)cc2)CCN1Cc1cccc(Cl)c1 (relative stereo)
- Activity (A549 [6]): Active
- inhibition of growth at 10 µM (A549 [3]): 100%
- Activity (A549 [7]): Tde
- Activity (A549 [8]): Active

Structure (SMILES): CNC(=O)c1cccc(-c2ccc([C@@H]3C[C@H]3NCCCCC3C(=O)N(Cc4cccc(Cl)c4)CCN(c4ccc(-c5ccccc5)cc4)C3=O)cc2)c1 (relative stereo)
- inhibition of growth at 10 µM (A549 [3]): 26%

Structure (SMILES): CNC(=O)c1cccc(-c2ccc([C@@H]3C[C@H]3NCCCCC3C(=O)N(Cc4ccccc4)CCN(c4ccccc4)C3=O)cc2)c1 (relative stereo)
- inhibition of growth at 10 µM (A549 [3]): 26%

Structure (SMILES): COc1cccc(-c2ccc([C@@H]3C[C@H]3NCCCCC3C(=O)N(Cc4ccccc4)CCN(c4ccccc4)C3=O)cc2)c1 (relative stereo)
- inhibition of growth at 10 µM (A549 [3]): 16%
